Laboratory results from patent publication US20250221930A1, “A COMPOSITION COMPRISING LIPID NANOPARTICLES AND AN ANTIFUNGAL POLYENE” (INSTITUT NATIONAL DE LA SANTÉ ET DE LA RECHERCHE MÉDICALE, priority 2022, published 2025).
≈ marks a conversion by molar mass, not a printed value.

Tests used:
Lichtheimia ramosa = test: EUCAST MICs of AmB, ISA, AmB-loaded LNPs and AmB-ISA-loaded LNPs; type: cell-based; settings: Lichtheimia ramosa; 24 h at 37° C.
Method: (§1) Briefly, a mass (80-120 mg) of an oil phase consisting of triglycerides (Labrafac®, or tributyrin in different mass ratios, i.e. 100% Labrafac® to 100% tributyrin) was supplemented with AmB (0,025 to 0.2 mg) and ISA (0.25 to 5 mg) and then mixed with 80 to 120 mg of PEG15HS (Solutol HS15®) and 500 to 800 μl of water to form an oil-in-water emulsion. This emulsion was then heated to 85° C., to obtain a water-in-oil emulsion, and then cooled to 40° C. Three such temperature cycles were performed and the system was then fast cooled to 4° C. The formulated nanoparticles were then characterized by size distribution and mean zeta potential measurements. Examples of formulations of LNPs loaded with AmB and AmB-ISA are detailed in Table 5:
(§2) Rhizopus arrhizus 1, Lichtheimia corymbifera and Lichtheimia ramosa strains were used. These correspond to the most frequently encountered species in human mucormycosis. These three strains were isolated from patients suffering from pulmonary mucormycosis.
(§3) MICs of AmB in solution, ISA in solution, AmB-loaded LNPs, and AmB-ISA-loaded LNPs were evaluated according to the European Committee on Antimicrobial Susceptibility Testing (EUCAST) guidelines. Briefly, MICs were determined by adding 100 μL of two-fold dilutions of AmB in solution, ISA in solution, AmB-LNPs or AmB-ISA-LNPs (0.008 to 4 mg/L) in 96-well plates. One hundred microliters of a spore suspension at a concentration of 105 spores/mL were added to the wells, and the plates were incubated for 24 h (Mucorales) or 48 h (A. fumigatus) at 37° C. […] Three experiments were performed for each strain.

Rhizopus arrhizus 1 [1] = test: as above; type: cell-based; settings: Rhizopus arrhizus, 1; 24 h at 37° C.
Method: as §1, §2, §3

Lichtheimia corymbifera = test: as above; type: cell-based; settings: Lichtheimia corymbifera; 24 h at 37° C.
Method: as §1, §2, §3

L. ramosa = test: Checkerboard MICs of AmB, ISA and PEG15HS in solution; type: cell-based, Lichtheimia ramosa; settings: Lichtheimia ramosa, RPMI, 24 h at 37° C.
Method: (§4) AmB minimum inhibitory concentrations (MIC) of each strain of Mucorales was measured in RPMI in the presence of different concentrations of ISA or PEG15HS as described by the EUCAST broth microdilution antifungal susceptibility test methodology with modification for the checkerboard procedure. Checkerboards were performed by adding 100 μL of two-fold dilutions of AmB (0.008 to 4 mg/L) and ISA (0.008 to 4 mg/L) or PEG15HS (0.04 to 2752 mg/L) in 96 well plates. One hundred microliters of a spore suspension at a concentration of 105 spores/mL were added to the wells, and the plates were incubated for 24 h at 37° C. […] Three experiments were performed for each strain.
(§5) AmB MIC of each strain of Mucorales was measured in RPMI in the presence of different concentrations of ISA and a constant concentration of PEG15HS (100 times the concentration of AmB) as described by the EUCAST broth microdilution antifungal susceptibility test methodology with modification for the checkerboard procedure. Checkerboards were performed by adding 100 μL of two-fold dilutions of AmB (0.008 to 4 mg/L)+PEG15HS (0.8 to 400 mg/L) and ISA (0.008 to 4 mg/L) in 96 well plates. One hundred microliters of a spore suspension at a concentration of 105 spores/mL were added to the wells, and the plates were incubated for 24 h at 37° C. […] Three experiments were performed for each strain. […]

Aspergillus fumigatus = test: EUCAST MICs of AmB, ISA, AmB-loaded LNPs and AmB-ISA-loaded LNPs; type: cell-based; settings: 48 h at 37° C.
Method: as §1
Two reference strains (ATCC 16424 and ATCC 204305) and a clinical azole-resistant strain (AfR2) of Aspergillus fumigatus were used.
as §3

Rhizopus arrhizus 1 [2] = test: Checkerboard MICs of AmB, ISA and PEG15HS in solution; type: cell-based; settings: Rhizopus arrhizus, 1, RPMI, 24 h at 37° C.
Method: as §4, §5

L. corymbifera = test: as above; type: cell-based, Lichtheimia corymbifera; settings: Lichtheimia corymbifera, RPMI, 24 h at 37° C.
Method: as §4, §5

- MIC (Lichtheimia ramosa): 4 µg/mL (≈ 9.14 µM)
- MIC (Rhizopus arrhizus 1 [1]): 1 µg/mL (≈ 2.29 µM)
- MIC (Lichtheimia corymbifera): 4 µg/mL (≈ 9.14 µM)
- MIC (L. ramosa): 4 µg/mL
- MIC (Aspergillus fumigatus; ATCC16424, Aspergillus fumigatus 16 (ATCC 16424)): 0.5 µg/mL (≈ 1.14 µM)
- MIC (Aspergillus fumigatus; Aspergillus fumigatus, ATCC204305, A. fumigatus 20 (ATCC 204305)): 0.5 µg/mL (≈ 1.14 µM)
- MIC (Aspergillus fumigatus; Aspergillus fumigatus, A. fumigatus R2 (clinical azole-resistant strain AfR2)): > 4 µg/mL
- MIC (Rhizopus arrhizus 1 [2]): 1 µg/mL
- MIC (L. corymbifera): 4 µg/mL
Compound: C[C@@H](c1nc(-c2ccc(C#N)cc2)cs1)[C@](O)(Cn1cncn1)c1cc(F)ccc1F [ISA, isavuconazole]
